The results in this text go back to US20150119792A1, “LIGHT DEGRADABLE DRUG DELIVERY SYSTEM FOR OCULAR THERAPY” (priority 2012, published 2015).

The test system of one data set is Raw 264.7 cells. In words: Light-triggered release of FDA from nanoparticles, cell fluorescence (imaging, plate reader). The format is cell-based. The following applies: UV irradiation, free FDA. As for the experimental part: The dye selected for these studies was Fluorescein Diacetate (FDA), which is an ester of fluorescein. […] Nanoparticles containing FDA were formulated through an inverse emulsion/solvent evaporation process. […] The resulting solution was added to a larger volume of 1% solution of polyvinyl alcohol (PVA) and probe sonicated to form the emulsion. The organic solvent was then evaporated under vacuum, and PVA removed by tangential flow ultrafiltration. The resulting solution was then freeze-dried with mannitol as cryoprotectant. The resulting particles were characterized by dynamic light scattering (DLS) and scanning electron microscopy (SEM). The encapsulation efficiency was evaluated by liquid-liquid extraction of FDA from particles and fluorescence measurements. […] As a more quantitative assay, we measured the amount of fluorescence of the cells using a plate reader (same cell count in each well). […] FIG. 4 is a bar graph showing the measured fluorescence for irradiated and non-irradiated Raw 264.7 cells. The cells in irradiated wells show higher fluorescence due to triggered release of payload (dark bars) as compared to cells in non-irradiated wells (light bars). […] We found an 18-fold increase in fluorescence upon irradiation as compared to the non-irradiated control in Raw 264.7 macrophage cell line, as well as a 3-fold increase upon irradiation in retinal cell line.

A short description of data set [1]: Visual and microscopic inspection of the eye after intra-vitreous injection. The format is in vivo, Sprague-Dawley albino rats. The following applies: compared with PBS buffer (left eye). As for the experimental part:
WO2011/038117. Initial in vivo testing on a rat model (Sprague-Dawley albino rats) was performed to determine the biocompatibility of the empty polymer particles without encapsulated cargo. This involved intra-vitreous injection of different concentrations of the light-degradable particles (“NP low” and “NP high” test categories in FIG. 2A) as well as different concentrations of nanoparticles composed of a known biocompatible material (PLGA). In each animal, the test material was injected into the right eye while a phosphate buffered solution (PBS) was injected into the left eye as a negative control. Additionally, animals were administered nanoparticle solutions that had previously been irradiated with UV light (˜350 nm) to determine any deleterious effects of the degradation byproducts (“NP low+UV” and “NP high+UV”.) Lipopolysaccharide (LPS) was injected in another group as a positive control as it is known to cause inflammation. […] FIG. 2A illustrates the intra-ocular pressure (IOP) data for these tests, with each group of bars, with the bars proceeding from left to right in the figure, corresponding to pre-operative IOP, drug (nanoparticle) day 1, PBS at day 1 after injection, drug (nanoparticle) day 4 after injection, PBS day 4, drug day 5, PBS day 5 etc. up to day 7 after injection. […] Second, the intra-ocular pressure was measured daily. […]

For `CC(=O)Oc1ccc2c(c1)Oc1cc(OC(C)=O)ccc1C21OC(=O)c2ccccc21` [FDA, Fluorescein Diacetate], the “bleaching of FDA by irradiation” value in the data set with Raw 264.7 cells is recorded as “does not cause significant bleaching”.

On to Lipopolysaccharide [LPS], for which the “visual and microscopic inspection of the eye” value in data set [1] is given as “caused tearing”.
